The text below walks through data of ChEMBL document CHEMBL1150009, “Quinine analogs as non-peptide calcitonin gene-related peptide (CGRP) receptor antagonists” (Bioorg Med Chem Lett, 1997).

As a reminder, the IC50 is the concentration at which inhibition is half-maximal. Usually inhibition stands for the drop in the measured response relative to a control, in per cent.

The subject of one test is SK-N-MC. In words: In vitro inhibition of CGRP-mediated cAMP production in SK-N-MC cells. The format is functional, cell-based. As to conditions: Homo sapiens.
Test [1] addresses T1, Calcitonin gene-related peptide type 1 receptor (Homo sapiens, UniProt O60894+Q16602). In words: Displacement of [125I]hCGRP human Calcitonin gene-related peptide type receptor expressed in SK-N-MC neuroblastoma cell membranes.
Test [2] deals with T2, Endothelin receptor type B (Homo sapiens) (UniProt P24530).
T2 sequence (whole entry): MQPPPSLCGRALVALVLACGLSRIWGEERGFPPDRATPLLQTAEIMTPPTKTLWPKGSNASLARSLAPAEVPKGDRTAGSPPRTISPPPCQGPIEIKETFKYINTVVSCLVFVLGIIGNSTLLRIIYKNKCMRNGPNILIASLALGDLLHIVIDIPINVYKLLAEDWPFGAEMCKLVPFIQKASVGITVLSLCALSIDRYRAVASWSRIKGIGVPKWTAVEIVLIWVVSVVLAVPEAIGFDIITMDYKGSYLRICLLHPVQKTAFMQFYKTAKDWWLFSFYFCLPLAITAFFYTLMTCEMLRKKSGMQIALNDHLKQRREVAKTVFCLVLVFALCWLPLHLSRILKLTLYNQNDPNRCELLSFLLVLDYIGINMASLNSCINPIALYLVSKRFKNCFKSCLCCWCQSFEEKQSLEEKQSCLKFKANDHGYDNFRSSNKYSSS
In words: Compound (up to 30 uM) was tested in vitro for percent effectiveness for ligand binding to ETB receptors.

The target of test [3] is T3, Vasoactive intestinal peptide receptor (Gallus gallus) (UniProt A5A0U0).
T3 sequence (whole entry): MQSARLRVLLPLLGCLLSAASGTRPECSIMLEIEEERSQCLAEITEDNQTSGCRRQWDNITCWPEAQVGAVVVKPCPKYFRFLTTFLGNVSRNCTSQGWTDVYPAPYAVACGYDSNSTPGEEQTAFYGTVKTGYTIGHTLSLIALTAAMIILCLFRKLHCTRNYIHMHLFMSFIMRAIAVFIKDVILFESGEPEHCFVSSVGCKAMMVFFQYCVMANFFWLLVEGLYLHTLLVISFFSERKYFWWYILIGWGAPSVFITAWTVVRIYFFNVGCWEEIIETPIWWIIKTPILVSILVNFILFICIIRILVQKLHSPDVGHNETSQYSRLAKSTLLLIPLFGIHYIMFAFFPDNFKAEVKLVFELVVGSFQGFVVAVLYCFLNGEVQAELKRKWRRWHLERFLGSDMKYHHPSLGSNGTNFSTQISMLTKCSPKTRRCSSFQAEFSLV
In words: Compound (up to 30 uM) was tested in vitro for percent effectiveness for ligand binding to Vasoactive intestinal peptide receptor.

Test [4] deals with G-protein coupled receptor 182 (Homo sapiens) (UniProt O15218). In words: Compound (up to 30 uM) was tested in vitro for percent effectiveness for ligand binding to Adrenomedullin receptor.
The target of test [5] is T1, Calcitonin gene-related peptide type 1 receptor. In words: Compound was tested in vitro for its binding affinity towards recombinant human Calcitonin gene-related peptide type receptor (membranes of HEK293 cells) using [125I]hCGRP as radioligand. The format is cell membranes.
The target of test [6] is T4, Endothelin-1 receptor (Homo sapiens) (UniProt P25101).
T4 sequence (whole entry): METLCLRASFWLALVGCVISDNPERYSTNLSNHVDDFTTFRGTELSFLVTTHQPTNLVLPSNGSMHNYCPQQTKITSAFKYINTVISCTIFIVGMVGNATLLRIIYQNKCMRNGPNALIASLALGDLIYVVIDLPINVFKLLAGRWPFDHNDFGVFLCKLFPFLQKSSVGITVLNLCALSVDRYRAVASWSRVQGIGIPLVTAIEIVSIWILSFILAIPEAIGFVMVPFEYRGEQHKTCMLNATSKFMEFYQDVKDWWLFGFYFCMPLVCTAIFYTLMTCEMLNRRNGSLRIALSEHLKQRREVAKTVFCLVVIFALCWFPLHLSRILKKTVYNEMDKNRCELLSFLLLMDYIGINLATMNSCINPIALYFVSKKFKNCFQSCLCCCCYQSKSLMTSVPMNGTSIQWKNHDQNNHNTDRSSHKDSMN
In words: Compound (up to 30 uM) was tested in vitro for percent effectiveness for ligand binding to ETA receptors.

The target in test [7] is T5, Type-1 angiotensin II receptor A (Rattus norvegicus) (UniProt P25095).
T5 sequence (whole entry): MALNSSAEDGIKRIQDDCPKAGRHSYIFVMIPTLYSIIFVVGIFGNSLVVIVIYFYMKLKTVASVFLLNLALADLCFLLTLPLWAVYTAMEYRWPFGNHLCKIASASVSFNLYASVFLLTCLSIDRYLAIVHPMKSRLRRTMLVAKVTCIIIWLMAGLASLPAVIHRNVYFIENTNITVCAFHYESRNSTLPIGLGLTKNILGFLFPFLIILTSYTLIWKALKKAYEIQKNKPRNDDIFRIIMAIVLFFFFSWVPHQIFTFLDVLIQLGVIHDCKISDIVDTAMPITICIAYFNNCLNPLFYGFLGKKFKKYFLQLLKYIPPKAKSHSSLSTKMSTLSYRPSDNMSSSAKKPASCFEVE
In words: Compound (up to 30 uM) was tested in vitro for percent effectiveness for ligand binding to Angiotensin II receptor.

A short description of test [8]: Inhibitory concentration in vitro using porcine lung membrane (to identify non-peptide antagonist of the CGRP receptor). The class given is functional, cell membranes, Sus scrofa.
Test [9] in a line: Compound (up to 30 uM) was tested in vitro for percent effectiveness for ligand binding to GLP-1 receptors.

T1 sequence (Q16602 whole entry, one chain of several): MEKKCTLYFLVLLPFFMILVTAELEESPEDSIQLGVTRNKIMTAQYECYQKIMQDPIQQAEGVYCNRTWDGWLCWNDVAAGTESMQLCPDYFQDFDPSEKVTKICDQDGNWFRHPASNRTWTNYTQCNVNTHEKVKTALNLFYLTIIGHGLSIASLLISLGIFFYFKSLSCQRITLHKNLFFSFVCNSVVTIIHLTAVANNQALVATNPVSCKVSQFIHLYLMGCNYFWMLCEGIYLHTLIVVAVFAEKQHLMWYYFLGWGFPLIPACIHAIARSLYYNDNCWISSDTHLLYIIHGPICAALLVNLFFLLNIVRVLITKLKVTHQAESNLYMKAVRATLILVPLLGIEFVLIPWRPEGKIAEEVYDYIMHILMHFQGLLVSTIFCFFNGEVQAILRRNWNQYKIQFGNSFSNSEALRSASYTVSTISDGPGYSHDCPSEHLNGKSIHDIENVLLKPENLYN
Sequence of G-protein coupled receptor 182 (Homo sapiens) (O15218 whole entry): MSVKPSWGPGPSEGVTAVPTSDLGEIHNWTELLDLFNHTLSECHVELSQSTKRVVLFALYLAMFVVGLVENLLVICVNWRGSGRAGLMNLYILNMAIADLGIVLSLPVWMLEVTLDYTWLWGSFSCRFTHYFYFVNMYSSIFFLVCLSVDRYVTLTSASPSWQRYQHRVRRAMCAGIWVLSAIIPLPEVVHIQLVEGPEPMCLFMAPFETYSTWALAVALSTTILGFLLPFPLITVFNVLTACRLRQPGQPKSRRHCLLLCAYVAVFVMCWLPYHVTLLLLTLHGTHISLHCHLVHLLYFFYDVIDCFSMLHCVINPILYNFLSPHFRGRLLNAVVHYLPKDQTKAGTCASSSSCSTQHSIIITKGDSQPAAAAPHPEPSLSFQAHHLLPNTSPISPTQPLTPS

Consider `CCC1CN2CCC1CC2[C@H](O)c1cc(-c2ccc(Cl)cc2Cl)nc2ccc(OC)cc12` (stereo partly specified), for which the IC50 in the test with SK-N-MC turned out to be 28 µM; in [1] it was 37 µM.
As for `CCC1CN2CCC1CC2[C@H](O)c1cc(-c2ccc(F)c(Cl)c2)nc2ccc(OC)cc12` (stereo partly specified), the IC50 was found to be 14 µM in the test on SK-N-MC and 17 µM in test [1].
In the same order, the values of `CCC1CN2CCC1CC2[C@H](O)c1cc(-c2cccc(C(F)(F)F)c2)nc2ccc(OC)cc12` (stereo partly specified) are 20 µM and 9.9 µM.
With `CCC1CN2CCC1CC2[C@H](O)c1cc(-c2ccc(OC)cc2)nc2ccc(OC)cc12` (stereo partly specified), the IC50 in test [1] was greater than 100 µM.
In the case of `CCC1CN2CCC1CC2[C@H](O)c1cc(-c2cccc3ccccc23)nc2ccc(OC)cc12` (stereo partly specified), the IC50 in the test on SK-N-MC is 23 µM; in test [1], 33 µM.
For the compound `CCC1CN2CCC1CC2[C@H](O)c1cc(-c2ccsc2)nc2ccc(OC)cc12` (stereo partly specified), the IC50 in test [1] is greater than 100 µM.
On to `CCC1CN2CCC1CC2[C@H](O)c1cc(-c2ccc(Oc3ccccc3)cc2)nc2ccc(OC)cc12` (stereo partly specified), for which the IC50 in the test with SK-N-MC came out at 22 µM; in test [1] it was 12 µM.
On the same counts, the results for `CCC1CN2CCC1CC2[C@H](O)c1cc(-c2ccccc2)nc2ccc(OC)cc12` (stereo partly specified) are 65 µM and 96 µM.
`CCC1CN2CCC1CC2[C@H](O)c1cc(-c2ccc(Cl)cc2)nc2ccc(OC)cc12` (stereo partly specified): the inhibition in test [2], in [3], in test [4], in test [6], in [7] and in test [9] was less than 20% throughout. Moreover, the IC50 in the test on SK-N-MC was determined as 26 µM; in test [1], 5.9 µM; in test [5], 5.5 µM; in [8], 6 µM.
For the compound `CCC1CN2CCC1CC2[C@H](O)c1cc(-c2cccc(N)c2)nc2ccc(OC)cc12` (stereo partly specified), the IC50 (with SK-N-MC; in test [1]) was greater than 100 µM each time.
Take `CCC1CN2CCC1CC2[C@H](O)c1cc(-c2cccc([N+](=O)[O-])c2)nc2ccc(OC)cc12` (stereo partly specified): the IC50 in [1] amounted to 41 µM.
As for `CCC1CN2CCC1CC2[C@H](O)c1cc(-c2ccc(C(F)(F)F)cc2)nc2ccc(OC)cc12` (stereo partly specified), the figures for the concentration for half-maximal inhibition (IC50) (with SK-N-MC; in test [1]) were 24 µM and 5.2 µM, respectively.
In the same order, the values of `CCC1CN2CCC1CC2[C@H](O)c1cc(-c2ccc3c(c2)OCO3)nc2ccc(OC)cc12` (stereo partly specified) are 60 µM and 74 µM.
